Results published in publication PMC12817916, “A small-molecule HSP90 inhibitor, NVP-HSP990, alleviates rotavirus infection” (Journal of Virology, 2025).

Tested on: RV (Wa or SA11 strains)
Test: RV replication in Caco-2 cells at varying MOI and timing of drug addition (PFA)
Assay type: cell-based, Rotavirus
Procedure: Rhesus monkey embryo kidney cell line MA104 cells (ATCC: CRL-2378.1) were provided by Dr. Elschner (Friedrich-Loeffler-Institute). Human intestinal epithelial cell lines Caco-2 cells (ATCC: HTB-37) and HT-29 cells (ATCC: HTB-38) were from ATCC and kept in our institute. All the cells were cultured in complete DMEM (Dulbecco’s modified Eagle medium [Gibco, USA] plus 10% [vol/vol] fetal bovine serum [FBS] [Gibco, USA] and 1% penicillin/streptomycin [Gibco, USA]) at 37°C with 5% CO2. RV Wa (G1P[8]) and SA11 (G3P[2]) strains were gifted by Professor Duan Zhaojun from the China Center for Disease Control and Prevention (Beijing, China) and propagated in MA104 cells. RV EDIM strain G16P[16] was gifted by Professor Wan Jianwei in Christophe Merieux Laboratory (Beijing) and propagated in BALB/c suckling mice. For RV infection in vitro, the viruses were diluted in DMEM, activated with 10 µg/mL trypsin (Gibco, USA) for 30 min at 37°C, and then added to target cells previously washed once with DMEM. After 1 h of incubation at 37°C, the inoculum was removed; the cells were then washed twice with DMEM (without FBS) and incubated with DMEM (without FBS) at 37°C, which was denoted as 0 h post-infection (h p.i.). HSP90 inhibitors (NVP-HSP990, GA, and 17-AAG) and Ribavirin (Selleck, USA) were dissolved in DMSO (Sigma, USA). The drugs were administered with indicated concentrations at 0 h p.i. in vitro unless otherwise stated, or orally administered in 10 µL volume using a pipette tip with the indicated quantity plus 90% (vol/vol) corn oil.
(A) Caco-2 cells were infected with RV (Wa or SA11 strains) at varying MOIs (0.001–10), followed by treatment with 100 nM NVP-HSP990 or an equal volume of DMSO (as a control) for 24 h. Viral replication was assessed using PFA. (B) Schematic diagram illustrating the timing of NVP-HSP990 addition and removal. (C) Caco-2 cells were infected with RV (MOI = 1) and treated with 100 nM NVP-HSP990 or with DMSO as control at indicated infection periods as shown in panel B. Viral replication was tested with PFA at 20 h p.i. (D) Caco-2 cells were infected with RV (MOI = 1) and treated with 100 nM HSP990 at 0, 4, 8, 12 h p.i. or treated with DMSO at 0 h p.i. Virus replication was tested with PFA at 24 h p.i. (E) Caco-2 cells were infected with RV (MOI = 1) and further cultivated with DMEM containing 100 nM NVP-HSP990 or DMSO as control for 18 h. Then the infected cells were harvested for qPCR analysis of the expression of RV genes encoding the VP2, VP6, NSP4, and NSP5 proteins. (F) Caco-2 cells were mock-infected with PBS or infected with RV (MOI = 1) and further cultivated with DMEM containing 100 nM NVP-HSP990 or DMSO as control for 18 h. Then the cells were harvested for WB analysis of RV structural proteins VP6 and VP7. […]

SMILES: COc1cccc(-c2cc(F)ccc2[C@H]2Cc3nc(N)nc(C)c3C(=O)N2)n1 [NVP-HSP990]
- inhibitory effect on RV replication (100 nM, administered after RV infection (0 ~ 20 h p.i.), PFA at 20 h p.i.): ~100 fold
- reduction of final level of RV replication (100 nM, administered during RV infection (−1 ~ 0 h p.i.), PFA at 20 h p.i.): ~ 1 fold
- inhibition of RV replication across MOIs (Wa or SA11, MOI 0.001 to 10, 100 nM, 24 h p.i., PFA): Robust inhibition
- establishment of RV infection or subsequent viral replication (pre-treatment prior to RV infection (−2 ~ −1 h p.i.)): did not significantly interfere
